In patent publication US20070265164A1, “Active Substances for Increasing Pathogenic Defense in Plants and Methods for the Detection Thereof” (Bayer Cropscience GmbH, priority 2004, published 2007):

Assays:
Type in all cases: in vivo
Design in all cases: fold induction: dose or concentration left out as unconfirmed
[1] = system: Contig8905_at, Xytanase inhibitor protein; assay: GEP, barley DNA chip, probe set 3.1; conditions: Hordeum vulgare, topical; barley leaves 6 h after spray application; rates of Table 1 (S7 500); median induction factor vs control; read-out: Expression value, 3.1 Contig8905_at
Procedure: (§1) Barley plants (cv. Baronesse) were grown in compost-filled pots (diameter: 10 cm) for 10 days in a controlled-environment cabinet under defined light, humidity and temperature conditions (white light, 70% atmospheric humidity, 24° C.). At the time of spray application, the seedlings were approximately 15 cm in size. The test substances selected in this example were molecules which differ markedly in their structure and which have a well documented pronounced safener effect, and other molecules which are known from the literature to have an effect on plant stress and pathogen tolerance (Table 1). The substances were prepared as stock solutions in DMSO (dimethyl sulfoxide) at c=10 mg/ml). This was used for preparing dilutions in water supplemented with 0.2% Agrotin (comprises polyvinyl alcohol, silicones, polysaccharides and pH regulators, manufacturer: Bayer CropScience AG, Monheim, Germany), as wetter, to give the application rates shown in the table. The amount of liquid for the spray application was 800 μl per pot, corresponding to 800 l/ha. For each 800 μl of spray mixture, 16 μl of EC premix: diacetone alcohol=1:6 were additionally added as formulation auxiliaries. The substances listed in Table 1 were applied to the leaves by means of a pneumatic spray pistol. Each substance was sprayed as 2 dosages, and all experiments were carried out as replicates (2 pots per substance). Sprayings with blank formulation without active ingredient were carried out as controls. After 6 hours, the leaves were harvested, frozen in liquid nitrogen and stored at −80° C. until further use. The labeled RNA probes for the DNA chip hybridization were prepared as described in the protocols (Expression Analysis, Technical Manual) from Affymetrix (Affymetrix Inc., 3380 Central Expressway, Santa Clara, Calif., USA). First, total RNA was isolated from in each case 500 mg of the harvested leaves. In each case 10 μg of total RNA was used for the first-strand and second-strand cDNA synthesis. The cDNA was amplified with T7 polymerase and simultaneously labeled with biotin-UTP. In each case, 20 μg of this biotinylated cDNA was employed for the hybridization of the barley genome array (Gene Chip Barleyl, order No.: 511012) from Affymetrix. This DNA microarray comprises DNA sequences of 22 840 genes which are composed of a total of 400 000 EST sequences. Thereafter, the DNA microarrays were washed in the Affymetrix Fluidics Station, stained with streptavidin/phycoerythrin (Molecular Probes, P/N S-866) and scanned with the matching Agilent Laser Scanner (Agilent Gene Array Scanner). The fluorescent data obtained were analyzed with the software Microarray Suite 5 from Affymetrix. After the quality had been checked, all DNA chip analyses were stored in a database. To determine the relative expression values for genes (induction factors, repression factors), test and control chips were compared with each other, and the scoring function set by the Affymetrix software was used as the basis. The 2 biological replications of one experiment were compared in each case with 2 control chips (blank formulation), and the 4 expression values obtained for each gene were used for calculating the median. These medians are shown in the results tables as induction factors. Similarity comparisons of expression profiles from different experiments and cluster analyses were carried out using the software GeneMaths 1.5 from Applied Maths (Applied Maths, Keistraat 120, 9830 Sint-Martens-Latem, Belgium).
(§2) Gene groups from specific metabolic pathways and signal transduction chains were put together by key word search in the annotations, of the genes, which were also provided by Affymetrix, and by Blast analyses (homology comparisons) of the DNA target sequences, i.e. of the positive sequence (identified on the basis of a modified expression profile) identified on the DNA chip, using gene sequences from other organisms, preferably plant organisms, with characterized functions. […]

[2] = system: Contig2631_at, Lipase-like Protein (jasmonic acid biosynthesis gene); assay: Gene expression profiling (GEP), barley DNA chip, probe set 1.1; conditions: Hordeum vulgare; barley leaves 6 h after spray application; rates of Table 1 (S7 500); median induction factor vs control
Procedure: as §1, §2

[3] = system: Contig15_a_at, GDSL-motif lipase/hydrolase-like protein; assay: GEP, barley DNA chip, probe set 1.9; conditions: Hordeum vulgare, topical; barley leaves 6 h after spray application; rates of Table 1 (S7 500); median induction factor vs control; read-out: Expression value, 1.9 Contig15_a_at
Procedure: as §1, §2

[4] = system: Contig2326_s_at, 12-oxophytodienoic acid reductase; assay: GEP, barley DNA chip, probe set 1.18; conditions: Hordeum vulgare, topical; barley leaves 6 h after spray application; rates of Table 1 (S7 500); median induction factor vs control; read-out: Expression value, 1.18 Contig2326_s_at
Procedure: as §1, §2

[5] = system: Contig 4986_at, Allene oxide cyclase; assay: GEP, barley DNA chip, probe set 1.5; conditions: Hordeum vulgare, topical; barley leaves 6 h after spray application; rates of Table 1 (S7 500); median induction factor vs control; read-out: Expression value, 1.5 Contig 4986_at
Procedure: as §1, §2

[6] = system: Contig10030_at, Putative lipase homolog; assay: GEP, barley DNA chip, probe set 1.13; conditions: Hordeum vulgare, topical; barley leaves 6 h after spray application; rates of Table 1 (S7 500); median induction factor vs control; read-out: Expression value, 1.13 Contig10030_at
Procedure: as §1, §2

[7] = system: HV_Ceb0020D05r2_s_at, Allene oxide cyclase; assay: GEP, barley DNA chip, probe set 1.6; conditions: Hordeum vulgare, topical; barley leaves 6 h after spray application; rates of Table 1 (S7 500); median induction factor vs control; read-out: Expression value, 1.6 HV_Ceb0020 D05r2_s_at
Procedure: as §1, §2

[8] = system: Contig6611_at, Similar to lipases; assay: GEP, barley DNA chip, probe set 1.12; conditions: Hordeum vulgare, topical; barley leaves 6 h after spray application; rates of Table 1 (S7 500); median induction factor vs control; read-out: Expression value, 1.12 Contig6611_at
Procedure: as §1, §2

[9] = system: HD07M22r_s_at, Proteinase-Inhibitor (pir S71555, barley); assay: GEP, barley DNA chip, probe set 2.4; conditions: Hordeum vulgare, topical; barley leaves 6 h after spray application; rates of Table 1 (S7 500); median induction factor vs control; read-out: Expression value, 2.4 HD07M22r_s_at
Procedure: as §1, §2

[10] = system: Contig2990_at, Chitinase (EC 3.2.1.14); assay: GEP, barley DNA chip, probe set 5.1; conditions: Hordeum vulgare, topical; barley leaves 6 h after spray application; rates of Table 1 (S7 500); median induction factor vs control; read-out: Expression value, 5.1 Contig2990_at
Procedure: as §1, §2

[11] = system: Contig3096_s_at, Allene oxide synthase; assay: GEP, barley DNA chip, probe set 1.16; conditions: Hordeum vulgare, topical; barley leaves 6 h after spray application; rates of Table 1 (S7 500); median induction factor vs control; read-out: Expression value, 1.16 Contig3096_s_at
Procedure: as §1, §2

[12] = system: Contig2118_at, Peroxidase (EC 1.11.1.7), pathogen-induced; assay: GEP, barley DNA chip, probe set 4.1; conditions: Hordeum vulgare, topical; barley leaves 6 h after spray application; rates of Table 1 (S7 500); median induction factor vs control; read-out: Expression value, 4.1 Contig2118_at
Procedure: as §1, §2

Measured: fold induction

O=C(O)c1cc(Cl)cc(Cl)c1O [S10]
2.38: [8]
1: all other assays above
